From patent publication US20240293392A1, “INHIBITOR COMPOUNDS” (NeoPhore Limited, priority 2021, published 2024)

How the values were obtained:
[1] = biological target: T1, recombinant N-terminal MLH1 (residues 15-340) (Homo sapiens, UniProt P40692); assay: Fluorescence Polarisation Assay for MLH1; format: binding; details: fluorescence polarisation probe displacement; 100 nM N-terminal MLH1, 5 nM probe compound
T1 construct: recombinant N-terminal MLH1 (residues 15-340)
T1 sequence (P40692 15-340): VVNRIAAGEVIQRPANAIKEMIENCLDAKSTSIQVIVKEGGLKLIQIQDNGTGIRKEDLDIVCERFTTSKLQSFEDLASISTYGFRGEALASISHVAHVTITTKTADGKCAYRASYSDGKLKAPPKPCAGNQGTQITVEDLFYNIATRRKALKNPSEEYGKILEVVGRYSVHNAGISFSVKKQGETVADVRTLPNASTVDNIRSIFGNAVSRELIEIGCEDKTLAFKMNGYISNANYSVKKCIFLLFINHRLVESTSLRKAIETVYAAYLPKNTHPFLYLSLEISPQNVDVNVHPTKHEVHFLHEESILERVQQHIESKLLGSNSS
In short: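 FP displacement assay: 100 nM MLH1 (residues 15-340) preincubated 30 min at room temperature with compound in 25 mM HEPES pH 7.5, 250 mM NaCl, 10 mM MgCl2, 0.01% Triton X-100, 5 mM DTT, then 5 nM rhodamine-labelled probe added and read immediately. Data normalised to no-inhibitor and no-enzyme controls.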

[2] = biological target: T2, recombinant N-terminal PMS2 (residues 1-365) (Homo sapiens, UniProt P54278); assay: Fluorescence Polarisation Assay for PMS2; format: binding; details: fluorescence polarisation probe displacement; 10 nM N-terminal PMS2, 5 nM probe compound; read-out: PMS2 IC50
T2 construct: recombinant N-terminal PMS2 (residues 1-365)
T2 sequence (P54278 1-365): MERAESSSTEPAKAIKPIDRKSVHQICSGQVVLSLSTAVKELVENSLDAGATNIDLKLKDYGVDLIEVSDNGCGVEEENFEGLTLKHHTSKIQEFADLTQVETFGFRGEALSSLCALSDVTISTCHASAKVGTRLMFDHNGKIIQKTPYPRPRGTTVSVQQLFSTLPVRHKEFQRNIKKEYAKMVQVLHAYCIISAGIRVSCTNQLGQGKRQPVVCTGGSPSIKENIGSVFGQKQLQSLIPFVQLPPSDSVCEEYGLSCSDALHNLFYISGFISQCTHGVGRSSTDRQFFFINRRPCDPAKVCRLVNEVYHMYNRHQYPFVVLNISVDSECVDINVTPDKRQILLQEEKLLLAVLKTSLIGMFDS
In short: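 Competition fluorescence polarisation with 10 nM N-terminal PMS2 and 5 nM fluorescent probe (final), read after 1 h at room temperature following 30 min compound pre-incubation. Data normalised to no-inhibitor and no-enzyme controls; single-point screening or serial dilutions for potency.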

| IC50 [1] [µM] | IC50 [2] [µM] | Structure (SMILES) |
| --- | --- | --- |
| < 1 | < 1 | O=C(c1c(O)cc(O)cc1OCc1ccccc1)N1Cc2ccc(CNC3CCOC3)cc2C1 (centres unmarked) [Example 145, (2-(Benzyloxy)-4,6-dihydroxyphenyl)(5-(((tetrahydrofuran-3-yl)amino)methyl)isoindolin-2-yl)methanone] |
| < 1 | 1 to 10 | CC(=O)N1CC(Nc2cccc3c2CN(C(=O)c2c(O)cc(O)cc2OCc2ccccc2)CC3)C1 [Example 146, 1-(3-((2-(2-(Benzyloxy)-4,6-dihydroxybenzoyl)-1,2,3,4-tetrahydroisoquinolin-8-yl)amino)azetidin-1-yl)ethan-1-one] |
| < 1 | 1 to 10 | O=C(c1c(O)cc(O)cc1OCc1ccccc1)N1CCc2cccc(NC3CCS(=O)(=O)C3)c2C1 (centres unmarked) [Example 147, (2-(Benzyloxy)-4,6-dihydroxyphenyl)(8-((1,1-dioxidotetrahydrothiophen-3-yl)amino)-3,4-dihydroisoquinolin-2(1H)-yl)methanone] |
| 1 to 10 | > 10 | COC1COCC1Nc1cccc2c1CN(C(=O)c1c(O)cc(O)cc1OCc1ccccc1)CC2 (centres unmarked) [Example 148, (2-(Benzyloxy)-4,6-dihydroxyphenyl)(8-((4-methoxytetrahydrofuran-3-yl)amino)-3,4-dihydroisoquinolin-2(1H)-yl)methanone] |
| 1 to 10 | > 10 | COCOc1cc(OCOC)c(C(=O)N2CCc3cccc(N(C)C4CN(C(C)=O)C4)c3C2)c(OCc2ccccc2)c1 [Example 149, 1-(3-((2-(2-(Benzyloxy)-4,6-bis(methoxymethoxy)benzoyl)-1,2,3,4-tetrahydroisoquinolin-8-yl)(methyl)amino)azetidin-1-yl)ethan-1-one] |
| 1 to 10 | > 10 | COCCCC(=O)N1CC[C@H](N(C)c2cccc3c2CN(C(=O)c2c(O)cc(O)cc2OCc2ccccc2)CC3)C1 [Example 150, (S)-1-(3-((2-(2-(Benzyloxy)-4,6-dihydroxybenzoyl)-1,2,3,4-tetrahydroisoquinolin-8-yl) (methyl)amino)pyrrolidin-1-yl)-4-methoxybutan-1-one] |
| < 1 | > 10 | COCCCC(=O)N1CC[C@H](Nc2cccc3c2CN(C(=O)c2c(O)cc(O)cc2OCc2ccccc2)CC3)C1 [Example 151, (S)-1-(3-((2-(2-(Benzyloxy)-4,6-dihydroxybenzoyl)-1,2,3,4-tetrahydroisoquinolin-8-yl)amino)pyrrolidin-1-yl)-4-methoxybutan-1-one] |
